For two compounds, logD value results are on record in publication PMC9688344, “[^225Ac]Ac-SibuDAB for Targeted Alpha Therapy of Prostate Cancer: Preclinical Evaluation and Comparison with [^225Ac]Ac-PSMA-617” (Cancers, 2022).

A short description of this data set: PBS/n-octanol distribution coefficient (logD). It is filed as physicochemical. Conditions: PBS pH 7.4/n-octanol.

Structures are written as SMILES.

Regarding `O=C([O-])CN1CCN(CC(=O)[O-])CCN(CC(=O)NCC2CCC(C(=O)NC(Cc3ccc4ccccc4c3)C(=O)NCCCCC(NC(=O)NC(CCC(=O)O)C(=O)O)C(=O)O)CC2)CCN(CC(=O)[O-])CC1.[225Ac+3]` (centres unmarked) [[^225Ac]Ac-PSMA-617], the logD value was ≤ −3.9.

Take `CC(C)Cc1ccc(C(C)C(=O)NC(CCN)C(=O)NCCCCC(NC(=O)CN2CCN(CC(=O)[O-])CCN(CC(=O)[O-])CCN(CC(=O)[O-])CC2)C(=O)NCC2CCC(C(=O)NC(Cc3ccc4ccccc4c3)C(=O)NCCCCC(NC(=O)NC(CCC(=O)O)C(=O)O)C(=O)O)CC2)cc1.[225Ac+3]` (centres unmarked) [[^225Ac]Ac-SibuDAB]: the logD value is −2.5 ± 0.1.
